For orientation: DC50 means the concentration giving 50% degradation. As usually defined, the Dmax is the greatest extent of degradation seen.

The test concerns the target T1, Androgen Receptor (Homo sapiens, UniProt P10275).
T1 construct: endogenous in cells; host or cells: VCaP cells
T1 sequence (P10275 1-920): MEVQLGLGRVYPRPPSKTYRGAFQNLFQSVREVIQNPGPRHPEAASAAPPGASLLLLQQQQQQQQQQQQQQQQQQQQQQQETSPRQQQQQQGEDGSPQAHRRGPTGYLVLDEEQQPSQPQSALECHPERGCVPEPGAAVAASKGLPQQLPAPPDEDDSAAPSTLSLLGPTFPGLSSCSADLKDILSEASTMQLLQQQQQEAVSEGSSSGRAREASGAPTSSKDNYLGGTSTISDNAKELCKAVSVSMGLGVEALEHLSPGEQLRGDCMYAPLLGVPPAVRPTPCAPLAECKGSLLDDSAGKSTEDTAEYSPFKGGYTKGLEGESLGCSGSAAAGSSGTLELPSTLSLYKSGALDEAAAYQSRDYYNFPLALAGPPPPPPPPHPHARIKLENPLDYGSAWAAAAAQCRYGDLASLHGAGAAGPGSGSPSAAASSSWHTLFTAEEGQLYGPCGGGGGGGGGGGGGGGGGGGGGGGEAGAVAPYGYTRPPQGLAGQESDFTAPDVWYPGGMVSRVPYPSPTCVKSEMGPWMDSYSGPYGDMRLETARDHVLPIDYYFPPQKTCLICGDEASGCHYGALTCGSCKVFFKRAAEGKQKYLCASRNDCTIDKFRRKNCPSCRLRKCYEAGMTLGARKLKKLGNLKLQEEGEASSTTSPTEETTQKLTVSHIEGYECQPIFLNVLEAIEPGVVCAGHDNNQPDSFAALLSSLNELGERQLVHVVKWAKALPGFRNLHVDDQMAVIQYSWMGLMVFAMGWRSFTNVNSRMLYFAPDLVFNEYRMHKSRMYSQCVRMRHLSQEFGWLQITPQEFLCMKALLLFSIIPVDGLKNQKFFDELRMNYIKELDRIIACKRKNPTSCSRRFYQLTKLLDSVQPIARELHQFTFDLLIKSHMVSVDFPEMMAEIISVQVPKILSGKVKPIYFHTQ
Kind of test: Androgen Receptor ELISA assay (PathScan AR ELISA) in VCaP cells: AR degradation, Dmax and DC50. Type of test: cell-based. The conditions noted are these: for DC50: read-out: VCaP DC50; for Dmax: VCaP. In a few lines: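 VCaP cells in phenol red-free RPMI with 5% charcoal-stripped FBS were grown at least 3 days, then given compound as 7 half-log doses in 0.1% DMSO with 0.1 nM R1881 for 24 h. Lysates went into a sandwich AR ELISA with TMB read at 450 nm.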

[1] abbreviates: VCaP cells, Table 36, read-out: VCaP Dmax (%).
Setting [2] is: read-out: VCaP Dmax (%), VCaP cells, Table 36.

Read-outs that look alike come from different tables or passages of the source. Where only a bound is given, the exact number is not on record here.

In the case of `Cc1ncsc1-c1ccc([C@H](C)NC(=O)[C@@H]2C[C@@H](O)CN2C(=O)[C@@H](NC(=O)CN2CCN(CCCOCc3cc(C(=O)N[C@@H](C)Cn4ccc(-c5ccc(C#N)c(Cl)c5)n4)n[nH]3)CC2)C(C)(C)C)cc1` [Example 698, N-((S)-1-(3-(3-chloro-4-cyanophenyl)-1H-pyrazol-1-yl)propan-2-yl)-5-((3-(4-(2-(((S)-1-((2S,4R)-4-hydroxy-2-(((S)-1-(4-(4-methylthiazol-5-yl)phenyl)ethyl)carbam-oyl)pyrrolidin-1-yl)-3,3-dimethyl-1-oxobutan-2-yl)amino)-2-oxoethyl)piperazin-1-yl)propoxy)methyl)-1H-pyrazole-3-carboxamide], under “VCaP cells, Table 36”, the DC50 was under 50 nM. The Dmax under setting [1] is over 71%.

Consider `Cc1ncsc1-c1ccc([C@H](C)NC(=O)[C@@H]2C[C@@H](O)CN2C(=O)[C@@H](NC(=O)COCCN(CCCc2ccc(C(=O)N[C@H]3C(C)(C)[C@H](Oc4ccc(C#N)c(Cl)c4)C3(C)C)nc2)CCC(F)(F)F)C(C)(C)C)cc1` [Example 699, N-((1r,3r)-3-(3-chloro-4-cyanophenoxy)-2,2,4,4-tetramethylcyclobutyl)-5-(3-((2-(2-(((S)-1-((2S,4R)-4-hydroxy-2-(((S)-1-(4-(4-methylthiazol-5-yl)phenyl)ethyl)carbam-oyl)pyrrolidin-1-yl)-3,3-dimethyl-1-oxobutan-2-yl)amino)-2-oxoethoxy)ethyl)(3,3,3-trifluoropropyl)amino)propyl)picolinamide], for which the DC50 (VCaP cells, Table 36) was under 50 nM. For the same molecule, the Dmax under setting [2] lay within 26 to 50%.

As to `CNC(=O)[C@H]1CCCN1C(=O)C(NC(=O)COCCN1CCN(c2ccc(C(=O)N[C@H]3C(C)(C)[C@H](Oc4ccc(C#N)c(Cl)c4)C3(C)C)cn2)CC1)C(C)(C)C` (stereo partly drawn) [Example 700, N-((1r,3r)-3-(3-chloro-4-cyanophenoxy)-2,2,4,4-tetramethylcyclobutyl)-6-(4-(2-(2-(((S)-3,3-dimethyl-1-((S)-2-(methylcarbamoyl)pyrroli-din-1-yl)-1-oxobutan-2-yl)amino)-2-oxoethoxy)ethyl)pipera-zin-1-yl)nicotinamide], for the setting “VCaP cells, Table 36”, the DC50 was over 501 nM. Also, the Dmax under setting [1] is under 25%.

`Cc1ncsc1-c1ccc([C@H](C)NC(=O)[C@@H]2C[C@@H](O)CN2C(=O)[C@@H](c2ncc(CCCN3CCN(c4ccc(C(=O)NC5C(C)(C)C(Oc6ccc(C#N)c(Cl)c6)C5(C)C)cn4)CC3)n2C)C(C)C)cc1` (stereo partly drawn) [Example 701, N-((1r,3r)-3-(3-chloro-4-cyanophenoxy)-2,2,4,4-tetramethylcyclobutyl)-6-(4-(3-(2-((R)-1-((2S,4R)-4-hydroxy-2-(((S)-1-(4-(4-methylthiazol-5-yl)phenyl)ethyl)carbam-oyl)pyrrolidin-1-yl)-3-methyl-1-oxobutan-2-yl)-1-methyl-1H-imidazol-5-yl)propyl)piperazin-1-y)nicotinamide]: where the note is “VCaP cells, Table 36”, the “VCaP Dmax (%)” value was “+ (Dmax ≤ 25%)” and the DC50 was over 501 nM.

As for `Cc1ncsc1-c1ccc([C@H](C)NC(=O)[C@@H]2C[C@@H](O)CN2C(=O)[C@H](c2ncc(CCCN3CCN(c4ccc(C(=O)NC5C(C)(C)C(Oc6ccc(C#N)c(Cl)c6)C5(C)C)cn4)CC3)n2C)C(C)C)cc1` (stereo partly drawn) [Example 702, N-((1r,3r)-3-(3-chloro-4-cyanophenoxy)-2,2,4,4-tetramethylcyclobutyl)-6-(4-(3-(2-((S)-1-((2S,4R)-4-hydroxy-2-(((S)-1-(4-(4-methylthiazol-5-yl)phenyl)ethyl)carbam-oyl)pyrrolidin-1-yl)-3-methyl-1-oxobutan-2-yl)-1-methyl-1H-imidazol-5-yl)propyl)piperazin-1-yl)nicotinamide], under “VCaP cells, Table 36”, the “VCaP Dmax (%)” value was “+ (Dmax ≤ 25%)” and the DC50 is over 501 nM.

For the molecule `Cc1ncsc1-c1ccc(CNC(=O)[C@@H]2C[C@@H](O)CN2C(=O)C(NC(=O)COCCN2CCN(c3ccc(C(=O)N[C@H]4C(C)(C)[C@H](Oc5ccc(C#N)c(C(F)(F)F)c5)C4(C)C)cn3)C(=O)C2)C(C)(C)C)cc1` (stereo partly shown) [Example 703], the DC50 (VCaP cells, Table 36) was over 501 nM. Moreover, the maximal degradation (Dmax) under setting [1] was under 25%.

As to `Cc1ncsc1-c1ccc(C(NC(=O)[C@@H]2C[C@@H](O)CN2C(=O)C(NC(=O)COCCN2CCN(c3ccc(C(=O)N[C@H]4C(C)(C)[C@H](Oc5ccc(C#N)c(C(F)(F)F)c5)C4(C)C)cn3)CC2)C(C)(C)C)C2COC2)cc1` (stereo partly drawn) [Example 704, N-((1r,3r)-3-(4-cyano-3-(trifluoromethyl)phenoxy)-2,2,4,4-tetramethylcyclobutyl)-6-(4-(2-(2-(((S)-1-((2S,4R)-4-hydroxy-2-(((R)-(4-(4-methylthiazol-5-yl)phenyl)(oxetan-3-yl)methyl)carbamoyl)pyrrolidin-1-yl)-3,3-dimethyl-1-oxobutan-2-yl)amino)-2-oxoethoxy)ethyl)pipera-zin-1-yl)nicotinamide], the DC50 (VCaP cells, Table 36) was over 501 nM. Further, the Dmax under setting [1] was under 25%.

As for `Cc1ncsc1-c1ccc([C@@H](NC(=O)[C@@H]2C[C@@H](O)CN2C(=O)C(NC(=O)COCCN2CCN(c3ccc(C(=O)N[C@H]4C(C)(C)[C@H](Oc5ccc(C#N)c(C(F)(F)F)c5)C4(C)C)cn3)CC2)C(C)(C)C)C2COC2)cc1` (stereo partly drawn) [Example 705, N-((1r,3r)-3-(4-cyano-3-(trifluoromethyl)phenoxy)-2,2,4,4-tetramethylcyclobutyl)-6-(4-(2-(2-(((S)-1-((2S,4R)-4-hydroxy-2-(((S)-(4-(4-methylthiazol-5-yl)phenyl)(oxetan-3-yl)methyl)carbamoyl)pyrrolidin-1-yl)-3,3-dimethyl-1-oxobutan-2-yl)amino)-2-oxoethoxy)ethyl)pipera-zin-1-yl)nicotinamide], the DC50 (VCaP cells, Table 36) was under 50 nM. For the same molecule, the greatest degradation seen (Dmax) under setting [1] fell in the range of 26 to 50%.

With `Cc1ncsc1-c1ccc([C@H](C)NC(=O)[C@@H]2C[C@@H](O)CN2C(=O)[C@@H](NC(=O)CN2CCC(O[C@H]3C[C@H](Nc4ccc(C(=O)N[C@H]5C(C)(C)[C@H](Oc6ccc(C#N)c(Cl)c6)C5(C)C)cc4F)C3)CC2)C(C)(C)C)cc1` [Example 706, (2S,4R)-1-((S)-2-(2-(4-((1R,3S)-3-((4-(((1r,3R)-3-(3-chloro-4-cyanophenoxy)-2,2,4,4-tetramethylcyclobutyl)carbamoyl)-2-fluorophenyl)amino)cyclobutoxy)piperidin-1-yl)acetamido)-3,3-dimethylbutanoyl)-4-hydroxy-N-((S)-1-(4-(4-methylthiazol-5-yl)phenyl)ethyl)pyrrolidine-2-carboxamide], the DC50 (VCaP cells, Table 36) is under 50 nM. The Dmax under setting [2] was over 71%.

As to `CO[C@@H]1C[C@@H](C(=O)N[C@@H](C)c2ccc(-c3scnc3C)cc2)N(C(=O)[C@@H](NC(=O)CN2CCN(CCCc3ccc(C(=O)N[C@H]4C(C)(C)[C@H](Oc5ccc(C#N)c(C(F)(F)F)c5)C4(C)C)cc3)CC2)C(C)(C)C)C1` [Example 708, (2S,4R)-1-((S)-2-(2-(4-(3-(4-(((1r,3r)-3-(4-cyano-3-(trifluoromethyl)phenoxy)-2,2,4,4-tetramethylcyclobutyl)carbamoyl)phenyl)propyl)piperazin-1-yl)acetamido)-3,3-dimethylbutanoyl)-4-methoxy-N-((S)-1-(4-(4-methylthiazol-5-yl)phenyl)ethyl)pyrrolidine-2-carboxamide], the DC50 (VCaP cells, Table 36) is over 501 nM. Also, the Dmax (read-out: VCaP Dmax (%)) is under 25%.

For the molecule `CO[C@@H]1C[C@@H](C(=O)N(C)Cc2ccc(-c3scnc3C)cc2)N(C(=O)[C@@H](N(C)C(=O)COCCCCCN(C)c2ccc(C(=O)N(C)[C@H]3C(C)(C)[C@H](Oc4ccc(C#N)c(C(F)(F)F)c4)C3(C)C)nc2)C(C)(C)C)C1` [Example 709, N-((1r,3r)-3-(4-cyano-3-(trifluoromethyl)phenoxy)-2,2,4,4-tetramethylcyclobutyl)-5-((5-(2-(((S)-1-((2S,4R)-4-methoxy-2-(methyl(4-(4-methylthiazol-5-yl)benzyl)carbamoyl)pyrrolidin-1-yl)-3,3-dimethyl-1-oxobutan-2-yl)(methyl)amino)-2-oxoethoxy)pentyl)(meth-yl)amino)-N-methylpicolinamide], the DC50 (VCaP cells, Table 36) was over 501 nM. Further, the Dmax under setting [1] was under 25%.

(Values after US11427548B2 (Arvinas Operations, Inc., priority 2015, dated 2022).)
